Measurements as given in patent US7851573B2, “Aqueous polytetrafluoroethylene emulsion, polytetrafluoroethylene fine powder and porous material obtained therefrom” (Asahi Glass Company, Limited, priority 2005, dated 2010).

What was measured:
[1] = 1-octanol/water partition coefficient (LogPOW) by HPLC, OECD Test Guideline 117; type: physicochemical; conditions: for LogPOW: HPLC method, ODS column, acetonitrile/0.6 mass % HClO4 aq. 1/1, 40° C., calibration with C7-C10 carboxylic acids; for bioaccumulation potential / accumulation in a living organism: judged from the LogPOW value compared to APFO
Description: In accordance with OECD Test Guideline 117, 1-octanol/water partition coefficient (LogPOW) of a fluorinated emulsifier was measured by using HPLC (high performance liquid chromatography).
Conditions for the measurement were as follows: column: TOSOH ODS-120T column ((φ 4.6 mm×250 mm), eluent: acetonitrile/0.6 mass % of HClO4 aqueous solution=1/1 (vol/vol %), flow rate: 1.0 mL/minute, sample amount: 300 μL, column temperature: 40° C., and detection light: UV 210 nm (WO2005-42593).
HPLC was carried out on standard substances (heptanoic acid, octanoic acid, nonanoic acid and decanoic acid) having known 1-octanol/water partition coefficients, and a calibration curve was prepared from the respective elution times and octanol/water partition coefficients of the respective standard substances. Based on this calibration curve, a value of partition coefficient (LogPOW) between 1-octanol and water was calculated from the elution time by HPLC of the fluorinated emulsifier.
Further, in general, in order to judge whether or not a chemical substance is apt to be accumulated in a living organism, a testing method for measurement of a partition coefficient (LogPOW) between 1-octanol and water, is stipulated. As the testing method, in addition to “Partition Coefficient (1-octanol/water) Shake Flask Method” as stipulated in OECD test guideline 107 and in Japanese Industrial Standards Z 7260-107 (2000), a HPLC method (high-performance liquid chromatography) as stipulated and published in OECD Test Guideline 117, is used. A compound having a large partition coefficient value has a large tendency for bioaccumulation, and a compound having a small value means a small tendency for bioaccumulation. In a case where the LogPOW value is less than 3.5, it is considered proper to judge that it is not a high-concentration, and bioaccumulation is also considered to be small.

[2] = background art statement, no method given; cited from earlier work

Row | Structure (SMILES) | LogPOW [1] | bioaccumulation potential [2] | bioaccumulation potential / accumulation in a living organism [1]
1 | N.O=C(O)C(F)(F)C(F)(F)C(F)(F)C(F)(F)C(F)(F)C(F)(F)C(F)(F)F [CF3(CF2)6COONH4, ammonium perfluorooctanoate] | 3.67 | high | 
2 | N.O=C(O)C(F)(OC(F)(F)C(C(F)(F)F)C(F)(F)C(F)(F)C(F)(F)F)C(F)(F)F (stereo not shown) [CF3CF2CF2C(CF3)CF2OCF(CF3)COONH4] |  | higher bioaccumulation potential than APFO | 
3 | N.O=C(O)C(F)(F)OC(F)(F)C(F)(F)OC(F)(F)C(F)(F)F [CF3CF2OCF2CF2OCF2COONH4] | 3.13 |  | low
4 | N.O=C(O)C(F)(OC(F)(F)C(F)(OC(F)(F)C(F)(F)F)C(F)(F)F)C(F)(F)F (stereo not shown) [CF3CF2OCF(CF3)CF2OCF(CF3)COONH4] | 4.03 |  | high
